In ChEMBL document CHEMBL1128967, “Quantification of the extent of attenuation of the rate of turnover chemistry of the TEM-1 -lactamase by the -1R-hydroxyethyl group in substrates” (Bioorg Med Chem Lett, 1996):

Assays:
[1] = (§1) Compound was evaluated for the beta-lactamase activity as a substrate.
[2] = Compound was evaluated for the beta-lactamase activity as substrate expressed as ratio of kcat/Km.
[3] = Compound was evaluated for beta-lactamase activity as a substrate.
[4] = molecular target: Beta-lactamase (Enterobacter cloacae) (UniProt P05364); test: as §1
Chain of Beta-lactamase (Enterobacter cloacae) (P05364 21-381 limits assumed): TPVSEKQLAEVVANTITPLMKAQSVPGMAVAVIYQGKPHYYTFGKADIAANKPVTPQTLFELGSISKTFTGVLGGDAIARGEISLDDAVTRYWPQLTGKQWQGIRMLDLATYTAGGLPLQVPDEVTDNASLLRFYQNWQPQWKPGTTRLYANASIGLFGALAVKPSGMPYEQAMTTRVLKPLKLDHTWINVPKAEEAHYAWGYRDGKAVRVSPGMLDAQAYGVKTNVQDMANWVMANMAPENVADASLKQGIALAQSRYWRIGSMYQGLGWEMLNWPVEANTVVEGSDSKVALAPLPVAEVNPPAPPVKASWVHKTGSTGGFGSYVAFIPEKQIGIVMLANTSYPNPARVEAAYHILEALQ

[5] = Compound was evaluated for the beta-lactamase activity as a substrate expressed as ratio of kcat/Km.

`C[C@@H](O)[C@H]1C(=O)N2C(C(=O)O)=C(SCCNC=N)C[C@H]12` showed a k cat [1] of 0.04 s⁻¹, a Ratio [2] of 1480 M⁻¹ s⁻¹ and a Km [3] of 27 µM.
Work on `C[C@@H](O)[C@H]1C(=O)N2[C@@H]1SC(C)(C)[C@@H]2C(=O)O` yielded a k cat/Km [2] of 27 M⁻¹ s⁻¹.
In the case of `C[C@@H](O)[C@@H]1C(=O)N2[C@@H]1SC(C)(C)[C@@H]2C(=O)O`, the Km [1] is reported as 1.6 µM, the Ks [1] is reported as 13.5 µM and the k3 [1] is reported as 0.5 s⁻¹. It also gave a k cat [1] of 0.4 s⁻¹, a k cat/Km [1] of 2.8 M⁻¹ s⁻¹ and a k2 [4] of 3.7 s⁻¹.
With `CC1(C)S[C@@H]2CC(=O)N2[C@H]1C(=O)O` the k cat/Km [5] was 6.6 M⁻¹ s⁻¹.
